According to patent EP0521799A1, “Ophthalmic compositions” (YISSUM RESEARCH DEVELOPMENT COMPANY OF THE HEBREW …, priority 1991, dated 1993):

Tests used:
A. niger = test: Preservative efficacy in emulsion (Table 2); type: cell-based
Protocol: (§1) To each 20ml of emulsion, an inoculum of a microorganismal suspension (at an initial concentration of about 1-3 x 10⁸ cells per ml) was added under sterile conditions to a final concentration of about 1-3 x 10⁶ cells per ml of emulsion. Immediately upon inoculation and at 24, 48 hours, 7, 14 and 28 days thereafter, samples of 1 ml were withdrawn and eluted in a pH 7.0 sodium chloride buffer (B.P. 88 neutralizing buffer, DIFCO Laboratories, Detroit, MI, USA) to neutralize the preservatives. After about 20-30 minutes of exposure of sample to the neutralizing buffer, samples were filtered through a 0.45µm cellulose acetate filter (TE, Schueller & Schleicher). The filter and the holder were washed with 3 portions of 100 ml of sodium chloride peptone solution and then the filter was transferred to a petri dish with PCPL media which consisted of the following ingredients (per 400 ml): 20g tryptone, 1.0g yeast extract, 0.4g. dextrose, 6.0 bactoagar, 0.4g lethicin and 8.0ml Tween 80.
(§2) At 24 hours or at 2 to 5 days after the withdrawal of the sample, the number of the microorganism was counted on the petri dishes. (In order to achieve a proper count of the microorganism dilutions of the initially withdrawn sample to obtain a dilution factor of 1:10-1:50,000, were made).
(§3) Two blank emulsions without a preservative served as control for the two different neutralizing buffers.

C. albicans = test: Preservative efficacy in emulsion (Table 2); type: cell-based
Protocol: as §1, §2, §3

E. coli = test: Preservative efficacy in emulsion (Table 2); type: cell-based
Protocol: as §1, §2, §3

P. aeruginosa = test: Preservative efficacy in emulsion (Table 2); type: cell-based
Protocol: as §1, §2, §3

S.aureus = test: Preservative efficacy in emulsion (Table 2); type: cell-based; details: for Number of Organisms in 1ml Emulsion: S.aureus
Protocol: as §1, §2, §3

microorganisms = test: Preservative efficacy of single preservatives, overall judgement; type: cell-based
Protocol: as §1, §2, §3
The same experiment was also carried out with Chlorbutol alone instead of Thimerosal.

[1] = HU-211 concentration in emulsions on storage; type: physicochemical; details: in emulsion
Protocol: The HU-211 concentration was measured at different temperatures after various storage times and the results are shown in Fig. 11.

Albino rabbits = test: Intraocular pressure (IOP) after a single topical dose of HU-211 emulsion; type: in vivo; details: for decrease of IOP in the contralateral eye: untreated left eye, about 4 hours after administration
Protocol: Albino rabbits of both sexes weighing 2.25 kg were used. All rabbits chosen had no signs of ocular pathology.
(§4) The intraocular pressure (IOP) was measured by a Digilab pneumotonometer model 30R. For IOP measurement, one drop of the local anaesthetic benoxinate HCl (Fischer Pharmaceuticals, Israel) diluted 1:3 in sterile solution was instilled into each eye. In order to ensure reproducibility of IOP readings, the animals were accustomed to the experimental procedure by repeated handling.
Basal IOP was measured for 2 days prior to drug application by measuring the IOP 5 times over an 11 hrs. period (starting at 8am and ending at 7pm). Each time IOP was measured twice and an average of two readings was obtained.
IOP was measured at the time of drug application and at 1.5, 4, 6 and 11 hrs. thereafter.
Two groups of animals were tested, each by a different experimenter. The first group which consisted of 20 rabbits is referred to herein as " Group I" and the second group which consisted of 10 rabbits is referred to herein as "Group II". The two groups received, however, exactly the same treatment.
The treatment consisted of the application of a single dose of 50µl of a 0.1% (w/v) of HU-211 preparation in accordance with the invention into the lower cul-de-sac of the right eye of each rabbit. The eye was then kept open for a few more seconds, while excessive liquid spilling over the eyelid was wiped off. The left eye was not treated.

[2] = test system: ocularly hypertensive rabbits; test: IOP after topical Δ⁸-THC composition, hypertensive rabbits; type: in vivo, albino rabbits; details: composition of the invention comprising 0.4% Δ⁸-THC
Protocol: as §4
(§5) A composition in accordance with the invention comprising 0.4% Δ⁸-THC was administered to the right eyes of albino rabbits. The administration of the composition and IOP measurements were performed as described above under (A).
(§6) Both ocularly hypertensive and normo-tensive albino rabbits were used in the study.

[3] = test system: ocularly normo-tensive rabbits; test: IOP after topical Δ⁸-THC composition, normo-tensive rabbits; type: in vivo, albino rabbits; details: composition of the invention comprising 0.4% Δ⁸-THC
Protocol: as §4, §5, §6

[4] = Oh (immediately upon inoculation)
[5] = single preservative in emulsion
[6] = treated eye, single dose 50µl of 0.1% (w/v) HU-211

Compound	Number of Organisms in 1ml Emulsion (A. niger; 24h)	Number of Organisms in 1ml Emulsion (A. niger; 48h)	Number of Organisms in 1ml Emulsion (C. albicans; 24h)	Number of Organisms in 1ml Emulsion (C. albicans; 48h)	Number of Organisms in 1ml Emulsion (C. albicans; [4])	Number of Organisms in 1ml Emulsion (E. coli; 48h)	Number of Organisms in 1ml Emulsion (E. coli; [4])	Number of Organisms in 1ml Emulsion (P. aeruginosa; 24h)	Number of Organisms in 1ml Emulsion (P. aeruginosa; 48h)	Number of Organisms in 1ml Emulsion (P. aeruginosa; [4])	Number of Organisms in 1ml Emulsion (S.aureus; [4])	further results
N=C(NCCCCCCNC(=N)NC(=N)Nc1ccc(Cl)cc1)NC(=N)Nc1ccc(Cl)cc1 [CHL, Chlorhexidine gluconate]	38	54	>600	433	0.9 x 10^6	5 x 10^6	5.5 x 10^6	10^7	10^7	4.2 x 10^6	3.5 x 10^6	–
CC(C)(O)C(Cl)(Cl)Cl [Chlorbutol]	–	–	–	–	–	–	–	–	–	–	–	compliance with B.P. requirements (microorganisms; [5]): did not meet the B.P. requirements; preservative protection (microorganisms; [5]): No total preservative protection was achieved
CCCCCCC(C)(C)c1cc(O)c2c(c1)OC(C)(C)[C@H]1CC=C(CO)C[C@H]21 [HU-211]	–	–	–	–	–	–	–	–	–	–	–	HU-211 concentration ([1]; 8 months at 4°C, 25°C, 30°C and 37°C): essentially no change; HU-211 concentration ([1]; storage at 50°C): marked decrease in concentration; decrease of IOP in the contralateral eye (Albino rabbits; Group I): about 11.4%; decrease of IOP in the contralateral eye (Albino rabbits; Group II): ~12.1%; time until which the decrease in IOP persisted (Albino rabbits; treated eye, percentage of IOP change from basal level (Fig. 14)): about 11 hours; time after which basal IOP levels were resumed (Albino rabbits; [6]): about 11 hrs; time for which the decrease in IOP lasted (Albino rabbits; [6]): about 6 hrs; IOP (Albino rabbits; treated right eye, single dose of 50µl of 0.1% (w/v) HU-211 emulsion): dramatic decrease in IOP
C[CH2][Hg][S]c1ccccc1C(=O)O [THI, Thimerosal]	–	–	–	–	–	–	–	–	–	–	–	preservative protection (C. albicans; at 24h): not able to protect totally; maintenance of total killing (P. aeruginosa; after 48 hours): contamination was noted; maintenance of total killing (S.aureus; S. aureus, after 48 hours): contamination was noted; preservative effect compared with the other tested preservatives (microorganisms; 0.01% Thimerosal vs 0.02% benzalkonium chloride and 0.05% chlorhexadiene gluconate): much better preservative effect
Benzalkonium chloride [BZK]	29	43	>600	433	1.0 x 10^6	5 x 10^6	2.6 x 10^6	10^7	10^7	4.2 x 10^6	7.3 x 10^6	Number of Organisms in 1ml Emulsion (A. niger; [4]): 1.5 x 10^4; Number of Organisms in 1ml Emulsion (E. coli; 24h): 10^7; Number of Organisms in 1ml Emulsion (S.aureus; 24h): 10^7; Number of Organisms in 1ml Emulsion (S.aureus; 48h): 10^7
Δ⁸-THC	–	–	–	–	–	–	–	–	–	–	–	duration of the reduction of IOP [2]: long-lasting; IOP ([2]; right eye): dramatically reduces the IOP; duration of the reduction of IOP [3]: long-lasting; IOP ([3]; right eye): dramatically reduces the IOP
